Data published in article PMC4686831, “Identification of an allosteric binding site for RORγt inhibition” (Nature Communications, 2015).

Experiments:
[1] = test system: IL-17 production in human PBMCs; assay: PBMC Th17 polarization and IL-17 production assay; assay type: cell-based; details: 96 h, 4 days, mean±s.d., read-out: hPBMC IL17A IC50
Experimental: Test compounds were prepared as 10 mM stocks in DMSO and serially diluted 1:3 to provide an eight-concentration titration. […] Stimulatory cytokines were added to final concentrations of 25 ng ml^−1 IL-1B, 10 ng ml^−1 IL-23, 0.5 ng ml^−1 IL-2 and 10 ng ml^−1 IL-6 (all cytokines from R&D Systems). In addition, T-Activator CD3/28 Dynabeads (Invitrogen) were added to a concentration of 100,000 beads per ml. The stimulated cells were immediately dispensed into the assay plate containing serially diluted compound at a volume of 200 μl cells per well. Cell plates were then incubated at 37 °C and 5% CO2 for 4 days. Culture media (100 μl) was collected from each well and IL-17 expression was measured by enzyme-linked immunosorbent assay (R&D Systems) according to the manufacturer's instructions. Cell viability was assessed by the addition of 100 μl of CellTiter-Glo (Promega) to each well of the cell assay plate followed by luminescence detection on an Envision plate reader (PerkinElmer).

[2] = target: T1, RORγt-LBD (Homo sapiens, UniProt P51449); assay: RORγt-LBD SRC-1 cofactor FRET assay; assay type: biochemical
T1 construct: leader […]; made in house; host or cells: BL21(DE3) E. coli
T1 sequence (P51449 259-518): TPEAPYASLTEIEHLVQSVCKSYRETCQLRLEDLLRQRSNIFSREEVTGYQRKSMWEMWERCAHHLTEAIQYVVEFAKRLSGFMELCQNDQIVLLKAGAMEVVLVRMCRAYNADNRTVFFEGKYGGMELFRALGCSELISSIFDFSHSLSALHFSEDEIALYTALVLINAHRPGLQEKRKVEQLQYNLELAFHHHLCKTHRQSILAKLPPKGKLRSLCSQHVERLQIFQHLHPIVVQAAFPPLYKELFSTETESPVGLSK
Experimental: The potency of small-molecule RORγt ligands was then assessed by monitoring their effect on the association of a LXXLL-motif-containing SRC-1 peptide. Compound (10 mM dimethylsulphoxide (DMSO) stock) was serially diluted in threefold steps using an Agilent Bravo liquid handler. […] Compounds were allowed to incubate with receptor for 15 min and then 5 μl of peptide in detection buffer or detection buffer alone were added. Detection buffer (5 × ) consists of 50 mM Tris-HCL pH 7.0, 50 mM potassium chloride, 1 mM EDTA, 0.1% delipidated bovine serum albumin, 1 mM DTT and 20 nM streptavidin-APC (PerkinElmer). […] The plate was then incubated overnight at 4 °C. The following morning the plate was warmed to room temperature and read using an Envision plate reader (PerkinElmer). […] The per cent activity of each dilution was determined as the ratio of background corrected signal to the background corrected signal of wells receiving only DMSO. IC50 values were determined by fitting per cent activity data to a four-parameter logistic dose–response equation in GraphPad Prism (GraphPad Software).

[3] = target: T1, RORγt-LBD; assay: RORγt-LBD AlexaFluor-647-labelled MRL-871 competitive binding assay; details: 100 nM probe; mean±s.d.; read-out: MRL-871 AlexaFluor Probe Competition IC50
Experimental: The plate was then incubated for 15 min at room temperature. […] TR-FRET intensity in the presence of RORγt was corrected for background and the KD determined using the One-site specific binding equation in Graph Pad Prism. […] IC50 values were determined by fitting per cent activity data to a four-parameter logistic dose–response equation in GraphPad Prism.

[4] = target: T2, RORγt-GAL4 (Homo sapiens, UniProt P51449); assay: Chimeric RORγt-GAL4 luciferase reporter assay in HEK293T cells; assay type: cell-based; details: mean±s.d.
T2 construct: expressed in transfected cells; host or cells: HEK293T
T2 sequence (P51449 97-518): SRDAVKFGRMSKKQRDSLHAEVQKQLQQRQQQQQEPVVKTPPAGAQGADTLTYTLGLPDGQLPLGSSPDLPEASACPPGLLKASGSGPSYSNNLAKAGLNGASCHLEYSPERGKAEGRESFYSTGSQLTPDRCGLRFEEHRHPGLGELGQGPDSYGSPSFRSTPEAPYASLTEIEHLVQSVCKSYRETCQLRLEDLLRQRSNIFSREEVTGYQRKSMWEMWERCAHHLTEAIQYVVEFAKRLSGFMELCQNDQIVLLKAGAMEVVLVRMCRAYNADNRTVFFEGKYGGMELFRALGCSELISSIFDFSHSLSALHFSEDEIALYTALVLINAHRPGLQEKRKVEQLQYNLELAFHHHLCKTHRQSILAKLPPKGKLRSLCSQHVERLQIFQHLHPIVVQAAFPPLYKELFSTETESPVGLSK
Experimental: This vector, along with the GAL4 UAS-luciferase reporter vector pGL4.31 (Promega), was used to transfect HEK293T cells. […] Following transfection, cells were transferred to one T75 flask and incubated overnight at 37 °C and 5% CO2. […] Cells were collected and resuspended at 0.8 × 10^6 cells per ml in DMEM high-glucose media with 10% FBS. To each well of the plate was added 25 μl of cell suspension and the cells incubated overnight at 37 °C and 5% CO2. After 20–22 h, the plates were brought to room temperature and 25 μl of Steady-Glo luciferase reagent (Promega) was added to each well. The luminescent signal was measured on an Envision plate reader.

Question: With `CC1(C(=O)O)CC=C(c2nn(C(=O)c3c(Cl)cccc3C(F)(F)F)c3cccc(F)c23)CC1` (centres unmarked) [MRL-673] as the compound, how does the IC50 [1] read?
Answer: 142 ± 64 nM

Question: And the “weaker potency relative to MRL-367” value ([2]; in both the biochemical and cellular assays)?
Answer: 10 fold

Question: And the IC50 ([2]; mean±s.d., read-out: SRC1 Cofactor FRET IC50)?
Answer: 21.8 ± 6.7 nM

Question: And the IC50 [3]?
Answer: 26.4 ± 13 nM

Question: What about the IC50 [4] of the same compound?
Answer: 279 ± 137 nM
